Measurements published in patent US11517603B2, “Bone remodeling accelerator” (HOKURIKU UNIVERSITY, priority 2017, dated 2022).

Assays:
[1] = test system: osteoclast differentiation of mouse bone marrow cells; assay: Differentiation of osteoclast: TRAP-positive osteoclasts in mouse bone marrow cell culture; type: cell-based; settings: FIG. 2
Procedure: Mouse bone marrow cells were seeded in each well of a microplate containing 0.5 mL α-MEM (manufactured by MP Biomedicals INC.) at 3.5×10^6 cells/well, and cultured at 37° C., carbon dioxide concentration=5(v/v)%. […] On days 1 and 4 of culture, a differentiation induction reagent (calcitriol) was added to a final concentration of 10 nM. At 6 days from the culture, the cells were stained with tartaric acid resistance acidic phosphatase (TRAP), observed with a microscope (inverted culture microscope “CK40”, manufactured by Olympus Corporation, magnification=40×), and the cells stained with TRAP, i.e., differentiated osteoclasts, were detected.

[2] = test system: osteoblast differentiation of mouse bone marrow cells; assay: Differentiation of osteoblast: ALP-positive osteoblast nodules in mouse bone marrow cell culture; type: cell-based; settings: final concentration of 5 μM and 10 μM; p<0.05 or p<0.01; FIG. 1
Procedure: Mouse bone marrow cells were seeded in each well of a microplate containing 0.5 mL Eagle minimum essential medium a modified type (α-MEM) (manufactured by MP Biomedicals INC.) at 2.5×10^6 cells/well, and cultured at 37° C., carbon dioxide concentration=5(v/v)%. […] On days 1 and 4 of culture, a differentiation induction reagent (0.2 mM ascorbic acid, 2.5 mM β-glycerophosphoric acid, 10 nM dexamethasone) was added to the following final concentrations. At 6 days from the culture, the cells were stained with alkaline phosphatase (ALP), observed with a microscope (inverted culture microscope “CK40”, manufactured by Olympus Corporation, magnification=40×), and the osteoblast nodule stained with ALP, i.e., cell nodule formed by differentiated osteoblast, was detected.

O=C1CC(c2ccc(O)c(O)c2)Oc2cc(OC3OC(CO)C(O)C(O)C3O)ccc21 [F2, 3′,4′,7-trihydroxyflavanone 7-O-β-D-glucopyranoside]
final concentration at which a concentration-dependent differentiation accelerating action on osteoclast was exhibited ([1]; TRAP-positive osteoclast number per well, 6 days of culture): ≥ 2.5 µM | TRAP-positive osteoclast number versus control ([1]; final concentration of 5 μM and 10 μM): significant difference of p<0.05 | number of ALP-positive osteoblast nodules versus control [2]: significant difference from the control
